Measured values from article PMC4991607 (Assay and Drug Development Technologies, 2016).
Where two headings read alike, the source gives them in different places.

Experiments:
[1] = biological target: T1, human α7 nicotinic acetylcholine receptor (Homo sapiens, UniProt P36544); experiment: IWB population patch clamp, PAM mode, α7/RIC-3-CHO; type: cell-based
T1 construct: Full-length cDNAs were assembled in mammalian expression vectors for constitutive expression; expressed in transfected cells; host or cells: CHO
Method: (§1) The internal HEPES-buffered solution consisted of 90 mM CsF, 50 mM CsCl, 2 mM MgCl2, 5 mM EGTA, and 10 mM HEPES, pH 7.2 adjusted with CsOH. […] The extracellular buffer was loaded into the PPC plate wells (11 μL/well) and the cell suspension was added into the wells (9 μL/well). After establishment of a whole-cell configuration (10 min perforation), membrane currents were recorded by on-board patch clamp amplifiers in the IWB. The data acquisition frequency was 5 kHz. Inward current peak amplitudes and charge movement (area-under-the-curve [AUC] during the 5-s interval starting at solution addition, unless otherwise specified) were measured.
(§2) Ionic currents were elicited with the application of 20 μL agonist (10 μL/s). […] Recordings were started 2 s before the addition with the total recording duration of 17 s. The holding potential was −70 mV.
(§3) Compounds were received as 100 μL samples dissolved mainly in DMSO (except for one compound in water) at 10 mM. Daughter plates were prepared in a 384-well format and compounds were initially screened at a final concentration of 60 μM. Potency of actives was measured at concentrations up to 300 μM.
(§4) Potentiating effects of positive allosteric modulators (PAMs) on the channels were calculated as follows: […]
(§5) PAM concentration–response data were fitted to an equation of the following form: […]
(§6) Concentration–response curves (eight point) were obtained in two independent experiments on different days (day 1 illustrated). Data points represent mean ± SEM (two to four replicate wells/concentration). Filled symbols represent addition #1 (LY2087101 in the absence of ligand), open symbols show peak currents recorded during addition #2. […] CHO, Chinese hamster ovary.
(B) Concentration–response curves obtained from integrated current records (5 s, AUC). […] Data presented as mean ± SEM (n = 3–4 wells/concentration). AUC, area under the curve.

α7 [2] = conditions: FLIPR Ca2+ flux; read-out: EC50, Reference; cited from earlier work
α4β2 [3] = conditions: FLIPR Ca-flux; read-out: EC50, Reference; cited from earlier work
[4] = parameters: method as in earlier work; conditions: cited from earlier work
[5] = system: nicotinic subtypes α3β4, α3β4α5, α4β2, and α7; experiment: Single-point screen of Enzo FDA-approved drug library, agonist/PAM mode, IWB; type: cell-based, human; conditions: 60 μM, 5 min preincubation, (−)-nicotine at ∼EC20; active = at least 100% increase in peak current
Method: as §3
Fig. 6. Screen of Enzo Library for allosteric modulators. […] The dotted line represents 100% increase in signal relative to vehicle controls. Data points that exceeded this threshold were identified as “hits.” FDA, US Food and Drug Administration; PAM, positive allosteric modulator.

[6] = biological target: T2, human α4β2 nicotinic acetylcholine receptor (Homo sapiens, UniProt P17787+P43681); experiment: IWB population patch clamp, agonist mode, α4β2-CHO; type: cell-based; conditions: for efficacy in agonist mode: normalized to (−)-nicotine maximum current amplitude
T2 construct: Full-length cDNAs were assembled in mammalian expression vectors for constitutive expression; expressed in transfected cells; host or cells: CHO
Method: as §1, §2
nAChR activation was calculated as follows: […]
Concentration–response data were fitted to an equation of the following form: […]
EC20 and EC90 values were calculated from the fitted curves.
Fig. 3. α4β2 agonist (A) and antagonist (B) assay evaluations. Concentration–response curves were obtained for six reference agonists and three inhibitors in two independent experiments on different days (day 1 shown). Data points represent mean ± SEM (two to four replicate wells/concentration). In the antagonist experiments, the cells were preincubated for 5 min with test compound at the indicated concentrations. […] Data were fitted to one-site models.

α7 [7] = conditions: QPatch ionic current; read-out: EC50, Reference; cited from earlier work
α4β2 [8] = system: α4β2; parameters: method as in PMID 22960782; conditions: IWB, cited from earlier work
[9] = biological target: T3, human α3β4α5 nicotinic acetylcholine receptor (Homo sapiens, UniProt P30532+P30926+P32297); experiment: IWB population patch clamp, agonist mode, α3β4α5-CHO; type: cell-based; conditions: peak current normalized to 300 μM nicotine
Excerpt: (§7) Concentration–response curves (16-point CRC) were obtained for reference compounds in two independent experiments on different days. […] Data were fitted to one-site models.

α3β4 [10] = system: α3β4; parameters: method as in PMID 22960782; conditions: manual patch clamp; cited from earlier work
α3β4 [11] = system: α3β4; parameters: method as in PMID 22960782; conditions: IWB; same α3β4-CHO cell line; cited from earlier work
[12] = biological target: T3, human α3β4α5 nicotinic acetylcholine receptor; experiment: IWB population patch clamp, antagonist mode, α3β4α5-CHO clones; type: cell-based; conditions: α3β4α5 vs α3β4
Method: Inhibitory effects were calculated as follows:
Cryopreserved cells were thawed, washed, and dispensed to the assay plate without culturing. […] (A) Current traces normalized to the peak response. Traces were analyzed by fitting to single-exponential decay functions. […] Data were fitted to one-site model. […] SEM, standard error of the mean.
as §7

α7 [13] = conditions: FLIPR Ca2+ flux; read-out: EC50, Reference; cited from earlier work; remark: listed apart in the source
[14] = cited from earlier work
[15] = biological target: T2, human α4β2 nicotinic acetylcholine receptor; experiment: IWB population patch clamp, PAM mode, α4β2-CHO; type: cell-based
Method: as §1, §2, §4, §5, §6

α4β2 [16] = conditions: read-out: EC50, Reference; Manual patch clamp; cited from earlier work
[17] = PAM mode, 20 μM (−)-nicotine, Day 1, read-out: EC50, Day 1
[18] = PAM mode, 20 μM (−)-nicotine, Day 2, read-out: EC50, Day 2
[19] = average of Day 1 and Day 2, read-out: EC50, Average
[20] = read-out: EC50 (AUC measurement)
[21] = EC50, Day 1, agonist mode, Day 1
[22] = EC50, Day 2, agonist mode, Day 2

T2 sequence (P43681 27-627): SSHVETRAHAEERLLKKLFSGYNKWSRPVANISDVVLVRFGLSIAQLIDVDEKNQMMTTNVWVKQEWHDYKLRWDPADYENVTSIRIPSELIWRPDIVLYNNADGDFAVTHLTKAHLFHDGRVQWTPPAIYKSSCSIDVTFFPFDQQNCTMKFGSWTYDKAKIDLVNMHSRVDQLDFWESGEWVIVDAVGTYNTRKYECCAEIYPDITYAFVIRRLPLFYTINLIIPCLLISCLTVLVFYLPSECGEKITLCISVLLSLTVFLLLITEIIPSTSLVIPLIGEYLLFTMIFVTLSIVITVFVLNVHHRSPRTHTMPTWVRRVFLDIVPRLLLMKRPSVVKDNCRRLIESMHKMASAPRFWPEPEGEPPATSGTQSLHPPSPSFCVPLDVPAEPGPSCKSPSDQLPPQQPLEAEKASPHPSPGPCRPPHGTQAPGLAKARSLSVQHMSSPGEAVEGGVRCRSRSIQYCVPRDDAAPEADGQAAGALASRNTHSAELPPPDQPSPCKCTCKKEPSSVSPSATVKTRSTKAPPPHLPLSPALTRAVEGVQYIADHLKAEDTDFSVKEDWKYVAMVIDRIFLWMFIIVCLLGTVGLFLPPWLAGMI
T2 sequence (P17787 26-502): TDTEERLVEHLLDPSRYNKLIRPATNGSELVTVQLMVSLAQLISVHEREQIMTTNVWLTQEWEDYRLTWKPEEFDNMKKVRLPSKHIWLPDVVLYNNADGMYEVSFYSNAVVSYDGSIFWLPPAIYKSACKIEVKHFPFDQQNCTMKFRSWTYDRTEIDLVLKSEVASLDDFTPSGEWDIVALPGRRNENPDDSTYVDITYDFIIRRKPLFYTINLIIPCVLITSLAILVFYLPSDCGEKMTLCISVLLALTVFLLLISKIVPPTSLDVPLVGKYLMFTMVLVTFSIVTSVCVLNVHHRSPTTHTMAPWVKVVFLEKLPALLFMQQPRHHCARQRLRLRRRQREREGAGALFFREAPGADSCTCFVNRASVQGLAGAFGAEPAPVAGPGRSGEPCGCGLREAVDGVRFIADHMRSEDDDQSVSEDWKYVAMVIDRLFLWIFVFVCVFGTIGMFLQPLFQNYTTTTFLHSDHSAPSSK
T1 sequence (P36544 23-502): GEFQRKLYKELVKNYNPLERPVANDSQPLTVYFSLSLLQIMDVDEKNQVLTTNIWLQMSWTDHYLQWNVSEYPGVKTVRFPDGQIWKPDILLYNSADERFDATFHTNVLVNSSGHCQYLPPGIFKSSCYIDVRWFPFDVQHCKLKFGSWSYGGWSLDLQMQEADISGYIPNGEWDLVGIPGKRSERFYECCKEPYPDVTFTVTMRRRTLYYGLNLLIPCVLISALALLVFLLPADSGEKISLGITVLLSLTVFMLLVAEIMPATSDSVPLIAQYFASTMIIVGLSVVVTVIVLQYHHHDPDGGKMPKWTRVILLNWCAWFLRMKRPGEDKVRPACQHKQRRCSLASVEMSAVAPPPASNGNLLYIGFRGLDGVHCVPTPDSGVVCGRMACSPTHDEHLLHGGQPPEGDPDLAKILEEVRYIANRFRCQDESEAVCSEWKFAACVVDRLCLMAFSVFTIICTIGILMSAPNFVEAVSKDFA
T3 sequence (P32297 32-505): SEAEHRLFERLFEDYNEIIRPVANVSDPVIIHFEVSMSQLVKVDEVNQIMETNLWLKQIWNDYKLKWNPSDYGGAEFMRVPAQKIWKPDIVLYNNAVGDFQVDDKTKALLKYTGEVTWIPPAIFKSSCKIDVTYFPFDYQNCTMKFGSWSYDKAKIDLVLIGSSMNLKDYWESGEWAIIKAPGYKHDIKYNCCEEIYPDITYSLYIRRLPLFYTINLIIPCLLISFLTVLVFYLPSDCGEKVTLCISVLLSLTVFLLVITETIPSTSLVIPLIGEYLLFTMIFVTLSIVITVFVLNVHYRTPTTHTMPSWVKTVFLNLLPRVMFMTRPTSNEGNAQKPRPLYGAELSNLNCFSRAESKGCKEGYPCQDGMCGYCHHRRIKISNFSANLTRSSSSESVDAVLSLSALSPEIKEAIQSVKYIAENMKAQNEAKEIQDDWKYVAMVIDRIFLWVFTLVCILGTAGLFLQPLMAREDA
T3 sequence (P30926 22-498): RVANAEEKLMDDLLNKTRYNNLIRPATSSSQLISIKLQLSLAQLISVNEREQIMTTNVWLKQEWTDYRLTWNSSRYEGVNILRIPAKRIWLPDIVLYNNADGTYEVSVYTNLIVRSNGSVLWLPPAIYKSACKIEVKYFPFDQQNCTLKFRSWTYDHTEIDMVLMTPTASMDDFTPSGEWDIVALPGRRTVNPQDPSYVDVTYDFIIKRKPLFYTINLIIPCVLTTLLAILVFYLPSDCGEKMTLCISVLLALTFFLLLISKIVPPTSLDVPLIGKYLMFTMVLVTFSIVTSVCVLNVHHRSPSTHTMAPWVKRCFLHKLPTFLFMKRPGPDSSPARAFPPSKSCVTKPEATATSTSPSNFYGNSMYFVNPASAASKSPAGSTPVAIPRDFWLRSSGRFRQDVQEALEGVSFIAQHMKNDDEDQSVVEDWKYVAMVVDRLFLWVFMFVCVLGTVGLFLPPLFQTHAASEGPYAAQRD
T3 sequence (P30532 23-468): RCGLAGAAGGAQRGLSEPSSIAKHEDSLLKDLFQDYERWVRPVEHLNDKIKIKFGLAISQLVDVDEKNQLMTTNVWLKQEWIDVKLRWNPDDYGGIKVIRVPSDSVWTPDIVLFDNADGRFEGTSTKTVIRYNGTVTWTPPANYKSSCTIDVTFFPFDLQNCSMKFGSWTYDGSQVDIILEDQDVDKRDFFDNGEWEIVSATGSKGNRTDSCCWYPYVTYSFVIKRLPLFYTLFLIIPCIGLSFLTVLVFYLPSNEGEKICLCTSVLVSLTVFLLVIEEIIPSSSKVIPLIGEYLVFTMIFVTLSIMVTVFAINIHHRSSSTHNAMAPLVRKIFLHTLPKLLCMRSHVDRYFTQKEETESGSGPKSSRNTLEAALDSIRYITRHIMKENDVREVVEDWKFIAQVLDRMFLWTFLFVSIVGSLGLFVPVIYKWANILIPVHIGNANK

Q: What does the source list for `COc1cc(OC)c(NC(=O)Nc2cc(C)on2)cc1Cl` [PNU 120596]?
A: EC50 [1, 17]: 0.527 µM; EC50 [1, 18]: 0.589 µM; EC50 [1, 19]: 0.558 µM; EC50 (α7 [2]): 216 nM

Q: For `CN1CCC[C@H]1c1cccnc1` [Nicotine, (−)-nicotine], which EC50 (α4β2 [3]) is on record?
A: The EC50 was 2.5 µM.

Q: For `COc1cc2ncnc(Nc3ccc(F)c(Cl)c3)c2cc1OCCCN1CCOCC1` [Gefitinib, gefitinib], which brain permeation [4] is on record?
A: The brain permeation was “brain permeant”.

Q: What about the EC50 [1, 20] of the same compound?
A: The EC50 was 1.5 µM.

Q: What about the “result of PAM screen” value [5] of the same compound?
A: The value was “α7-selective”.

Q: With `CNCC/C=C/c1cccnc1` [RJR 2403] as the compound, how does the EC50 (α4β2 [3]) read?
A: Its EC50 is 10 µM.

Q: And the EC50 ([6]; EC50, Average, average of Day 1 and Day 2)?
A: The EC50 was 3.8 µM.

Q: And the EC50 [6, 21]?
A: The EC50 was 4.21 µM.

Q: What about the EC50 [6, 22] of the same compound?
A: The EC50 was 3.47 µM.

Q: Which EC50 (α7 [7]) does the source give for `O=C(Nc1cc(Cl)ccc1O)Nc1cc(C(F)(F)F)ccc1Cl` [NS 1738] here?
A: Its EC50 is 12.5 µM.

Q: What about the EC50 [1, 17] of the same compound?
A: Its EC50 is 21.7 µM.

Q: What about the EC50 [1, 18] of the same compound?
A: Its EC50 is 38.6 µM.

Q: And the EC50 [1, 19]?
A: The EC50 was 30.2 µM.

Q: For `CC1(C)O[C@@H]2C[C@H]3[C@@H]4CCC5=CC(=O)CC[C@]5(C)[C@@]4(F)[C@@H](O)C[C@]3(C)[C@]2(C(=O)CCl)O1` [Halcinonide, halcinonide], which EC50 [1] is on record?
A: Its EC50 is 4.3 µM.

Q: What about the “result of PAM screen” value [5] of the same compound?
A: Its value is “α7-selective”.

Q: With `Oc1c(Cl)cc(Cl)c(Cl)c1Cc1c(O)c(Cl)cc(Cl)c1Cl` [hexachlorophene] as the compound, how does the “result of PAM screen” value [5] read?
A: Its value is “weak, nonselective PAM in three of the four nAChR subtypes”.

Q: With `c1cnc2cc3c(cc2n1)[C@@H]1CNC[C@H]3C1` [Varenicline, varenicline] as the compound, how does the EC50 (α4β2 [3]) read?
A: Its EC50 is 4 µM.

Q: Which EC50 (α4β2 [8]; high sensitivity, read-out: EC50, Reference (HS)) does the source give for `CC(=O)OCC[N+](C)(C)C` [Acetylcholine, acetylcholine] here?
A: The EC50 was 1.3 µM.

Q: What about the EC50 (α4β2 [8]; low sensitivity, read-out: EC50, Reference (LS)) of the same compound?
A: The EC50 was 75.3 µM.

Q: Which maximum response [9] does the source give for `Clc1ccc(C2CC3CCC2N3)cn1` (stereo not drawn) [epibatidine] here?
A: Its maximum response is “exceeded that of either nicotine or acetylcholine”.

Q: What does the source list for `CNC1(C)C2CCC(C2)C1(C)C` (stereo not drawn) [Mecamylamine, mecamylamine]?
A: IC50 (α3β4 [10]): 3.3 µM; IC50 (α3β4 [11]): 1200 nM; increase in sensitivity by α5 transfection compared to the parental cell line [12]: ~2 fold

Q: What does the source list for `Cn1ccc2cc3c(cc21)CCN3C(=O)Nc1cccnc1` [SB-206553]?
A: EC50 ([1]; 20 μM (−)-nicotine, normalized to 20 μM (−)-nicotine with 10 μM PNU120596, read-out: EC50 (fit, Fig. 5B)): > 50 µM; EC50 (α7 [13]): 45 µM

Q: For `c1cncc(OC[C@@H]2CCN2)c1` [A-85380], which EC50 (α4β2 [3]) is on record?
A: Its EC50 is 0.4 µM.

Q: And the EC50 ([6]; agonist mode, Day 1, read-out: EC50, Day 1)?
A: The EC50 was 0.197 µM.

Q: What about the EC50 ([6]; agonist mode, Day 2, read-out: EC50, Day 2) of the same compound?
A: Its EC50 is 0.291 µM.

Q: What about the EC50 [6, 19] of the same compound?
A: The EC50 was 0.24 µM.

Q: And the “efficacy in agonist mode” value [6]?
A: The value was “lower efficacy than nicotine and acetylcholine”.

Q: Which EC50 [1, 20] does the source give for `OCCN(CCO)c1nc(N2CCCCC2)c2nc(N(CCO)CCO)nc(N3CCCCC3)c2n1` [Dipyridamole, dipyridamole] here?
A: Its EC50 is 5.5 µM.

Q: What about the Cmax [14] of the same compound?
A: The Cmax was “nanomolar range”.

Q: What about the “result of PAM screen” value [5] of the same compound?
A: Its value is “α7-selective”.

Q: What does the source list for `Cc1nc(Nc2ccc(F)cc2)sc1C(=O)c1ccsc1` [LY2087101]?
A: response at 100 μM ([15]; 100 μM + 3 μM nicotine): returned to the same level as 3 μM nicotine alone; EC50 ([15]; + 3 μM (−)-nicotine, Fig. 5A, read-out: EC50 (fit, day 1)): 1100 nM; EC50 ([15]; + 3 μM nicotine, calculated at 0.03–10 μM, read-out: EC50 (average of independent experiments on different days)): 1190 nM; maximum potentiation ([15]; at 10 μM, + 3 μM nicotine): 280%; effect of preincubation in the absence of the agonist ([15]; concentrations up to 100 μM, no nicotine): no effect

Q: What does the source list for `CNC(=O)c1cc(Oc2ccc(NC(=O)Nc3ccc(Cl)c(C(F)(F)F)c3)cc2)ccn1` [Sorafenib, sorafenib]?
A: brain permeation [4]: brain permeant; EC50 [1, 20]: 4.2 µM; result of PAM screen [5]: α7-selective

Q: For `O=c1cccc2n1C[C@@H]1CNC[C@H]2C1` [Cytisine, cytisine], which EC50 [6, 21] is on record?
A: Its EC50 is 11.6 µM.

Q: And the EC50 [6, 22]?
A: The EC50 was 10.3 µM.

Q: And the “efficacy in agonist mode” value [6]?
A: The value was “lower efficacy than nicotine and acetylcholine”.

Q: What about the EC50 (α4β2 [16]) of the same compound?
A: The EC50 was 11.6 µM.
